Measured values published in publication PMC8558239, “Interaction Between Florfenicol and Doxycycline Involving Cytochrome P450 3A in Goats (Capra hricus)” (Frontiers in Veterinary Science, 2021).
Where two headings read alike, the source gives them in different places.

Assays:
[1] = test system: CYP3A24 and its mutants (R105A, R372A, R440A); assay: Protein activity verification of CYP3A24 and its mutants with testosterone; details: TS 1 μmol/L, 60 min
Procedure: Testosterone (TS) is a specific substrate of CYP3A, which can generate 6β-OHTS under the action of CYP3A ([21]). In order to study the protein activity of CYP3A24 and its mutants, we incubated each protein with TS. The experimental steps were as follows: protein (0.5 mg/mL) and NADPH (1 mmol/L) were added to PBS (pH 7.4) for 10 min at 37°C, then TS (Dr. Ehrenstorfer GmbH, Germany, 1 μmol/L) was added to start the reaction. The total reaction volume was 200 μL. At 60 min after drug addition, 200 μL of ice-cold acetonitrile was added to terminate the reaction. After centrifugation at 12,000 g/min for 15 min, the supernatant was filtered through a 0.22 μm membrane and analyzed by LC-MS/MS (AB SCIEX API5000, USA). For TS and 6β-OHTS, chromatographic separation occurred using a Thermo Scientific Hypersil Gold C18 column (150 × 2.1 mm, 5 μm particles), and analytes were detected on an API5000 mass analyser. Mobile phase A was 0.1% formic acid in water, and mobile phase B was methanol. The flow rate was 0.2 mL/min with a linear gradient under the following conditions: 0–0.10 min 5–85% B, 0.10–4.10 min 85% B, 4.10–8.00 min 85–5% B. The injection volume was set to 10 μL.

CYP3A24 = assay: Incubation of recombinant CYP3A24 with FF and DOX (FFA production); format: in vitro ADME, goat; details: FF incubated with CYP3A24
CYP3A24 gene = assay: Gene expression of CYP3A24 in goat liver (qPCR); format: in vivo, goats
Procedure: Throughout the experiment, all goats had ad libitum access to feed and water without antibiotics. The goats were divided into three groups, namely the control group (6 animals), the single group (24 animals), and the combined group (24 animals). The control group was fed without medication. In the single group, FF (Zhonglongshenli Animal Pharmaceutical Co., Ltd. Hefei, China, specification: 10 mL: 1 g) was injected into the neck muscles at 48 h intervals, twice in total. In the combined group, FF was injected into the neck muscles at 48 h intervals, twice in total, and DOX-hyclate (Zhonglongshenli Animal Pharmaceutical Co., Ltd. Hefei, China, specification: 10 mL: 1 g) was injected into the neck muscles, once a day for 3 days. The volume of the treatment solution was calculated individually for each goat to provide a dose equivalent to 20 mg FF/kg bw and 10 mg DOX/kg bw. […]
Real-time quantitative polymerase chain reaction (qPCR) was used to detect the expression of CYP3A24 in treated goats. […] The concentration and purity of RNA was detected by Q3000 (Thermo, USA). […] The data were analyzed by the 2^ΔΔCt method.

[2] = Tissue residue depletion in goats (LC-MS/MS); format: in vivo, goats (Capra hircus); details: both sexes, Boaer-cross, intramuscular, i.m., mean ± SD, 4 goats; for concentration at 0.5 days: 0.5 days after last dose; for concentration at 1 day: 1 day after last dose
Procedure: In this study, a total of 54 Boaer-cross goats (Capra hircus) of both sexes, about 8 months old, were selected, weighing 28–36 kg. During the 1st week of acclimatization, all animals were raised in the usual way, with free access to feed and water. The experiment was conducted in accordance with the Guidelines for the Care and Use of Laboratory Animals issued by HZAU and approved by the Ethics Committee of Veterinary College of HZAU.
Throughout the experiment, all goats had ad libitum access to feed and water without antibiotics. The goats were divided into three groups, namely the control group (6 animals), the single group (24 animals), and the combined group (24 animals). The control group was fed without medication. In the single group, FF (Zhonglongshenli Animal Pharmaceutical Co., Ltd. Hefei, China, specification: 10 mL: 1 g) was injected into the neck muscles at 48 h intervals, twice in total. In the combined group, FF was injected into the neck muscles at 48 h intervals, twice in total, and DOX-hyclate (Zhonglongshenli Animal Pharmaceutical Co., Ltd. Hefei, China, specification: 10 mL: 1 g) was injected into the neck muscles, once a day for 3 days. The volume of the treatment solution was calculated individually for each goat to provide a dose equivalent to 20 mg FF/kg bw and 10 mg DOX/kg bw.
Goats of the single group (treated with FF) and goats of the combined group (treated with FF and DOX) were euthanized as previously described at 0.5 (n = 4), 1 (n = 4), 3 (n = 4), 7 (n = 4), 14 (n = 4), and 21 days (n = 4) after the last dose of 20 mg FF/kg bw (single group) and after the last dose of 20 mg FF/kg bw plus 10 mg DOX/kg bw (combined group). Goats were immediately exsanguinated, and tissue specimens of liver, kidney and muscle were collected separately. Each of the tissue specimens was carefully weighed and stored frozen at −20°C until assayed for concentrations of FF and FFA.
The method of FF and FFA pre-processing in the target tissues was as follows: Tissue samples weighing 1.00 ± 0.01 g were placed in a 10 mL centrifuge tube, then 5 mL 2% ammoniated ethyl acetate was added, and the tube was vortexed, sonicated and centrifuged. The above steps were repeated, and the supernatants were pooled and dried under a stream of nitrogen. The residue was reconstituted in 5% acetic acid in water, vortexed and passed through an MCX solid-phase extraction column (the order of the column was methanol, water, sample, 5% acetic acid water and 8% ammoniated ethyl acetate), then the eluate was dried under nitrogen, re-dissolved in 2 mL of degreased n-hexane, passed through a 0.22 μm filter membrane and subjected to LC-MS/MS (AB SCIEX API5000, USA) analysis.
All inter-assay coefficients of variation in each tissue were within 9.93%, the intra-assay coefficients of variation in each tissue were within 11.08%, and the recovery rates in each tissue were between 70.62 and 113.55%. […] For FF and FFA, the LOQ of the analysis was 10 μg/kg, and the LOD of the analysis was 2 μg/kg. The peak times of FFA and FF were 1.80 and 6.05, respectively (Figure 1).

CYP3A24 R440A = details: mutant R440A
CYP3A24 R372A = details: mutant R372A
[3] = goat, 20 mg/kg bw, kidney, read-out: Tissue concentration FF
[4] = goat, 20 mg/kg bw, liver, read-out: Tissue concentration FF
[5] = goat, 20 mg/kg bw, muscle, read-out: Tissue concentration FF

Structure (SMILES): C[C@]12CC[C@H]3[C@@H](CCC4=CC(=O)CC[C@@]43C)[C@@H]1CC[C@@H]2O [TS, Testosterone]
- metabolism of TS into 6β-OHTS [1]: could metabolize TS

Structure (SMILES): C[C@H]1c2cccc(O)c2C(=O)C2=C(O)[C@]3(O)C(=O)C(C(N)=O)=C(O)[C@@H](N(C)C)[C@@H]3[C@@H](O)[C@@H]21 [DOX, α-6-deoxy-5-hydroxytetracycline]
- reduction of FFA production on addition of DOX (CYP3A24): 17.8%

Structure (SMILES): CS(=O)(=O)c1ccc([C@@H](O)[C@@H](CF)NC(=O)C(Cl)Cl)cc1 [FF]
- up-regulation of CYP3A24 gene expression compared to control (CYP3A24 gene; 1 day after treatment stopped): about 2.3 fold
- up-regulation of CYP3A24 gene expression compared to control (CYP3A24 gene; 3 days after treatment stopped): ~3 fold
- concentration at 3 days after last dose ([2]; goat (Capra hircus), 20 mg FF/kg bw, liver, 3 days after last dose): 936 ± 148 ng/g
- concentration at 7 days after last dose ([2]; goat (Capra hircus), 20 mg FF/kg bw, liver, 7 days after last dose): 338 ± 126 ng/g
- concentration at 14 days after last dose ([2]; goat (Capra hircus), 20 mg FF/kg bw, liver, 14 days after last dose): 179 ± 26.5 ng/g
- concentration at 21 days after last dose ([2]; goat (Capra hircus), 20 mg FF/kg bw, liver, 21 days after last dose): 44.5 ± 17.6 ng/g
- concentration at 0.5 days [2, 3]: 2260 ± 203 ng/g
- concentration at 1 day [2, 3]: 1770 ± 142 ng/g
- concentration at 3 days ([2]; goat, 20 mg/kg bw, kidney, 3 days after last dose, read-out: Tissue concentration FF): 843 ± 124 ng/g
- concentration at 7 days ([2]; goat, 20 mg/kg bw, kidney, 7 days after last dose, read-out: Tissue concentration FF): 327 ± 43.4 ng/g
- concentration at 14 days ([2]; goat, 20 mg/kg bw, kidney, 14 days after last dose, read-out: Tissue concentration FF): 131 ± 17.1 ng/g
- concentration at 21 days ([2]; goat, 20 mg/kg bw, kidney, 21 days after last dose, read-out: Tissue concentration FF): 37.5 ± 8.6 ng/g
- concentration at 0.5 days [2, 4]: 2790 ± 257 ng/g
- concentration at 1 day [2, 4]: 2050 ± 310 ng/g
- concentration at 0.5 days [2, 5]: 1760 ± 201 ng/g
- concentration at 1 day [2, 5]: 858 ± 43.2 ng/g
- concentration at 3 days ([2]; goat, 20 mg/kg bw, muscle, 3 days after last dose, read-out: Tissue concentration FF): 376 ± 58.1 ng/g
- concentration at 7 days ([2]; goat, 20 mg/kg bw, muscle, 7 days after last dose, read-out: Tissue concentration FF): 162 ± 4.6 ng/g
- concentration at 14 days ([2]; goat, 20 mg/kg bw, muscle, 14 days after last dose, read-out: Tissue concentration FF): 48.6 ± 7.6 ng/g
- reduction of FF metabolism (FFA production) vs CYP3A24 (CYP3A24 R440A): 65.8%
- reduction of FF metabolism (FFA production) vs CYP3A24 (CYP3A24 R372A): 32.9%
